According to patent US20250051355A1, “COMPOUNDS, COMPOSITIONS, AND METHODS” (ACONCAGUA BIO, INC., priority 2023, published 2025):

Each compound was assayed against human calcitonin receptor (CTR) and RAMP3 (AMY3) (Homo sapiens, UniProt O60896+P30988) (assay: Amylin Receptor cAMP Assay I). Details: COS-7/AMY3 cells, cAMP Hi-range Kit, read-out: Amylin Receptor cAMP Stimulation Activity: EC50.
Assay type: cell-based
From the text: Amylin Receptor cAMP Assay I
AMYRs are heterodimers of the class B calcitonin (CT) G-protein-coupled receptor (CTR) and receptor activity-modifying proteins (RAMPs). All three RAMPs can interact with the CTR and form AMY1, AMY2, AMY3 with RAMP1, RAMP2 and RAMP3, respectively. Like other class B1 GPCRs, the CT receptor family is canonically coupled to Gs-mediated cAMP production, and measurement of cAMP accumulation has been the primary assay used to determine peptide selectivity and potency.
To optimize functional activity directed toward Gas coupling, COS-7 cells were stably transfected with human calcitonin receptor (CTR) and RAMP3, simultaneously. 100×concentration of compound working solutions were prepared (Agilent Technologies Bravo) with 4-fold serial dilution in 384-well Echo LDV plate (Labcyte, Cat #LP-0200). 100 nL/well 100× concentration of compound working solutions were moved to 384-well white low volume plate (Greiner, Cat #784075) using Labcyte ECHO550. 1×10^5 cells/mL COS-7/CTR or COS-7/AMY3 (HD Biosciences) cell suspensions prepared with assay buffer [DPBS containing 0.5 mM IBMX (Sigma, Cat #15879) and 0.1% BSA (GENVIEW, Cat #FAO16-100 g)], 10 μL cell suspensions were added to each well of previous generated assay plate which already contains 100 nL compound at 100× concentration using ThermoFisher Multidrop Combi (1000 cells/well). Seal the plate and incubate at 37° C. with 5% CO2 for 30 min.
After incubation, the cAMP assay signal was generated using cAMP Hi-range Kit (Cisbio). 5 μL cAMP-d2 working solution was added to each well, followed by 5 μL Anti-cAMP antibody-cryptate working solution which was added to each well using ThermoFisher Multidrop Combi. The samples were then incubated at room temperature for 1 hour protected from light. the fluorescence was read at 665 and 615 nm with Reader PerkinElmer EnVision.

Chain of human calcitonin receptor (CTR) and RAMP3 (AMY3) (O60896 24-148): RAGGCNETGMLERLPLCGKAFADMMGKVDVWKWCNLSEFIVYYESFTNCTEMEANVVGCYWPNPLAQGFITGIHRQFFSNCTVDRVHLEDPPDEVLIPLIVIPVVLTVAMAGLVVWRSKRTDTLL
Chain of human calcitonin receptor (CTR) and RAMP3 (AMY3) (P30988 25-474): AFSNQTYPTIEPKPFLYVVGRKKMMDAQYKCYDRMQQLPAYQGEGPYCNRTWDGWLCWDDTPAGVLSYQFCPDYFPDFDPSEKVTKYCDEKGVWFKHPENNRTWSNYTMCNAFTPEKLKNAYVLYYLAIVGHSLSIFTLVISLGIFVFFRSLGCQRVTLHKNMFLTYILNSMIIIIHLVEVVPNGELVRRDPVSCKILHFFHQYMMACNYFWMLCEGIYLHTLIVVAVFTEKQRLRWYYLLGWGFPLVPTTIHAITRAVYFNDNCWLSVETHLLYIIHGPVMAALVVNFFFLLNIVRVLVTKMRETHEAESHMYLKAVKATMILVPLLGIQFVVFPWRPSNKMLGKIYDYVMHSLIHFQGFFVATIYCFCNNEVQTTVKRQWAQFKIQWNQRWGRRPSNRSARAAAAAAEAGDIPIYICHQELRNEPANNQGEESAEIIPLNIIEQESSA

| Compound | EC50 [µM] |
| --- | --- |
| Cc1nnc(-c2c(CCc3ccc(F)cc3)nc3c(c2-c2ccc(C(=O)NCc4cncc(F)c4)s2)C(=O)N2CCC[C@@H]32)o1 [Compound 12, (S)-5-(2-(4-fluorophenethyl)-3-(5-methyl-1,3,4-oxadiazol-2-yl)-5-oxo-7,8,9,9a-tetrahydro-5H-pyrido[2,3-a]pyrrolizin-4-yl)-N-((5-fluoropyridin-3-yl)methyl)thiophene-2-carboxamide] | 0.113 |
| Cc1nnc(-c2c(CCc3ccc(F)cc3)nc3c(c2-c2ccc(C(=O)N[C@@H]4CCc5ncccc54)s2)C(=O)N2CCC[C@@H]32)o1 [Compound 28] | 0.315 |
| Cc1nnc(-c2c(CCc3ccc(F)cn3)nc3c(c2-c2ccc(C(=O)NCc4ccc(F)c(F)c4)s2)C(=O)N2CCC[C@@H]32)o1 [Compound 8, (S)—N-(3,4-difluorobenzyl)-5-(2-(2-(5-fluoropyridin-2-yl)ethyl)-3-(5-methyl-1,3,4-oxadiazol-2-yl)-5-oxo-7,8,9,9a-tetrahydro-5H-pyrido[2,3-a]pyrrolizin-4-yl)thiophene-2-carboxamide] | 3.59 |
| Cc1nnc(-c2c(COc3ccc(F)cc3)nc3c(c2-c2ccc(C(=O)N[C@@H]4CCc5ncccc54)s2)C(=O)N2CCC[C@@H]32)o1 [Compound 32, N—[(R)-4-aza-1-indanyl]-5-{(2S)-11-[(p-fluorophenoxy)methyl]-10-(5-methyl-1,3,4-oxadiazol-2-yl)-7-oxo-6,12-diazatricyclo[6.4.0.0^2,6]dodeca-1(8),9,11-trien-9-yl}-2-thenamide] | 0.728 |
| COc1cccc2c1CC[C@H]2Nc1nccc2cc(-c3c4c(nc(CCC5CCOCC5)c3-c3nnc(C)o3)[C@@H]3CCCN3C4=O)sc12 [Compound 83, (2S,6R)-9-(7-[(R)-4-methoxy-1-indanylamino]-1-thia-6-aza-2-indenyl}-10-(5-methyl-1,3,4-oxadiazol-2-yl)-11-[2-(tetrahydro-2H-pyran-4-yl)ethyl]-6,12-diazatricyclo[6.4.0.0^2,6,]dodeca-1(8), 9,11-trien-7-one] | 0.059 |
| Cc1nnc(-c2c(CC3(c4ccc(F)cc4)CC3)nc3c(c2-c2ccc(C(=O)NCc4ccc(F)c(F)c4)s2)C(=O)N2CCC[C@@H]32)o1 [Compound 49, (S)—N-(3,4-difluorobenzyl)-5-(2-((1-(4-fluorophenyl)cyclopropyl)methyl)-3-(5-methyl-1,3,4-oxadiazol-2-yl)-5-oxo-7,8,9,9a-tetrahydro-5H-pyrido[2,3-a]pyrrolizin-4-yl)thiophene-2-carboxamide] | 0.382 |
| Cc1nnc(-c2c(CCC3CCC(F)(F)CC3)nc3c(c2-c2ccc(C(=O)NCc4ccc(F)c(F)c4)s2)C(=O)N2CCC[C@@H]32)o1 [Compound 27] | 0.174 |
| Cc1ccc(CCc2nc3c(c(-c4ccc(C(=O)NCc5ccc(F)c(F)c5)s4)c2-c2nnc(C)o2)C(=O)N2CCC[C@@H]32)cn1 [Compound 22] | 1.13 |
| Cc1nnc(-c2c(CCc3ccc(F)cc3)nc3c(c2-c2ccc(C(=O)NCc4ccc(F)c(F)c4)s2)C(=O)N2CC[C@H](O)[C@@H]32)o1 [Compound 50, N-(3,4-difluorobenzyl)-5-((9S,9aR)-2-(4-fluorophenethyl)-9-hydroxy-3-(5-methyl-1,3,4-oxadiazol-2-yl)-5-oxo-7,8,9,9a-tetrahydro-5H-pyrido[2,3-a]pyrrolizin-4-yl)thiophene-2-carboxamide] | 0.129 |
| Cc1nnc(-c2c(CCC3CCOC(C)(C)C3)nc3c(c2-c2ccc(C(=O)NCc4ccc(F)c(F)c4)s2)C(=O)N2CCC[C@@H]32)o1 (stereo partly drawn) [Compound 66, N-(3,4-difluorobenzyl)-5-((9aS)-2-(2-(2,2-dimethyltetrahydro-2H-pyran-4-yl)ethyl)-3-(5-methyl-1,3,4-oxadiazol-2-yl)-5-oxo-7,8,9,9a-tetrahydro-5H-pyrido[2,3-a]pyrrolizin-4-yl)thiophene-2-carboxamide] | 0.975 |
| Cc1nnc(-c2c(CC(O)c3ccc(F)cc3)nc3c(c2-c2ccc(C(=O)N[C@@H]4CCc5ccccc54)s2)C(=O)N2CCC[C@@H]32)o1 (stereo partly drawn) [Compound 51, N-[(1R)-2,3-dihydro-1H-indenyl]-5-[(9aS)-2-[2-(4-fluorophenyl)-2-hydroxyethyl]-3-(5-methyl-1,3,4-oxadiazol-2-yl)-5-oxo-7,8,9,9a-tetrahydro-5H-pyrido[2,3-a]pyrrolizin-4-yl]thiophene-2-carboxamide] | 0.551 |
| Cc1nnc(-c2c(CCOC(C)C)nc3c(c2-c2ccc(C(=O)NCc4ccc(F)c(F)c4)s2)C(=O)N2CCC[C@@H]32)o1 [Compound 35, (S)—N-(3,4-difluorobenzyl)-5-(2-(2-isopropoxyethyl)-3-(5-methyl-1,3,4-oxadiazol-2-yl)-5-oxo-7,8,9,9a-tetrahydro-5H-pyrido[2,3-a]pyrrolizin-4-yl)thiophene-2-carboxamide] | > 0.1 |

Now those with a lower EC50, led by results:

| EC50 [µM] | Compound |
| --- | --- |
| 0.0525 | Cc1ncoc1-c1c(CCc2ccc(F)cc2)nc2c(c1-c1ccc(C(=O)NCc3ccc(F)c(F)c3)s1)S(=O)(=O)N1CCC[C@@H]21 [Compound 33, (S)—N-(3,4-difluorobenzyl)-5-(2-(4-fluorophenethyl)-3-(4-methyloxazol-5-yl)-5,5-dioxido-7,8,9,9a-tetrahydropyrrolo[1′,2′:2,3]isothiazolo[4,5-b]pyridin-4-yl)thiophene-2-carboxamide] |
| 0.0481 | Cc1nnc(-c2c(CCc3ccc(F)cc3)nc3c(c2-c2ccc(C(=O)NC4CC(O)c5ccccc54)s2)C(=O)N2CCC[C@@H]32)o1 (stereo partly drawn) [Compound 11, 5-((S)-2-(4-fluorophenethyl)-3-(5-methyl-1,3,4-oxadiazol-2-yl)-5-oxo-7,8,9,9a-tetrahydro-5H-pyrido[2,3-a]pyrrolizin-4-yl)-N-(3-hydroxy-2,3-dihydro-1H-inden-1-yl)thiophene-2-carboxamide] |
| 0.037 | CC(C)c1nnc(-c2c(CCc3ccc(F)cc3)nc3c(c2-c2ccc(C(=O)NCc4ccc(F)c(F)c4)s2)C(=O)N2CCC[C@@H]32)o1 [Compound 21] |
| 0.0205 | Cc1nc(C)c(-c2c(CCc3ccc(F)cc3)nc3c(c2-c2ccc(C(=O)NCc4ccc(F)c(F)c4)s2)C(=O)N2CCC[C@@H]32)o1 [Compound 34, (S)—N-(3,4-difluorobenzyl)-5-(3-(2,4-dimethyloxazol-5-yl)-2-(4-fluorophenethyl)-5-oxo-7,8,9,9a-tetrahydro-5H-pyrido[2,3-a]pyrrolizin-4-yl)thiophene-2-carboxamide] |
| 0.0202 | Cc1nnc(-c2c(CCc3ccc(F)cc3)nc3c(c2-c2cc4ccnc(NCc5ccc(F)c(F)c5)c4s2)C(=O)N2CCC[C@@H]32)o1 [Compound 40, (S)-4-(7-((3,4-difluorobenzyl)amino)thieno[2,3-c]pyridin-2-yl)-2-(4-fluorophenethyl)-3-(5-methyl-1,3,4-oxadiazol-2-yl)-7,8,9,9a-tetrahydro-5H-pyrido[2,3-a]pyrrolizin-5-one] |
| 0.0131 | Cc1nnc(-c2c(CCc3ccc(F)cc3)nc3c(c2-c2cc4ccnc(NCc5ccc(F)c(F)c5)c4s2)C(=O)N2CCCC32O)o1 (stereo not shown) [Compound 53] |
| 0.0126 | Cc1cnc(-c2c(CCc3ccc(F)cc3)nc3c(c2-c2ccc(C(=O)NCc4ccc(F)c(F)c4)s2)C(=O)N2CCC[C@@H]32)o1 [Compound 14, N-(3,4-difluorophenyl)methyl-5-{(2S)-11-[2-(p-fluorophenyl)ethyl]-10-(5-methyl-1,3-oxazol-2-yl)-7-oxo-6,12-diazatricyclo[6.4.0.0^2,6]dodeca-1(8),9,11-trien-9-yl)-2-thenamide] |
